Columns and labels:
[1] = system: Liver SNU-398; experiment: CellTiter Glo cell viability assay; assay type: cell-based, human; conditions: Homo sapiens; SNU-398/CRL-2233; 11 dilutions 3-0.00001 μM; read-out: IC50
Method in brief: (§1)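 Cells were seeded at 1.7*10^3 cells/well in quadruplicate and treated with 18 two-fold dilutions from 5 μM (0.000038146–5 μM), or with 1, 2, 5, 10 and 20 μM. Viability was read by CellTiter Glo luminescence on days 1, 3 and 5, and IC50 came from nonlinear regression of RLU against log dose.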

[2] = system: Bladder T24; experiment: CellTiter Glo cell viability assay; assay type: cell-based, human; conditions: Homo sapiens; T24/HTB-4; 11 dilutions 3-0.00001 μM; read-out: IC50
Method in brief: as §1

[3] = system: Pancreatic BxPC3; experiment: CellTiter Glo cell viability assay; assay type: cell-based, human; conditions: Homo sapiens; BxPC-3/CRL-1687; 11 dilutions 3-0.00001 μM; read-out: IC50
Method in brief: as §1

[4] = system: Pharynx FADU; experiment: CellTiter Glo cell viability assay; assay type: cell-based, human; conditions: Homo sapiens; Fadu/HTB-43; 11 dilutions 3-0.00001 μM; read-out: IC50
Method in brief: as §1

[5] = system: Bladder SCABER; experiment: CellTiter Glo cell viability assay; assay type: cell-based, human; conditions: Homo sapiens; SCaBER/HTB-3; 11 dilutions 3-0.00001 μM; read-out: IC50
Method in brief: as §1

[6] = system: Kidney Caki-2; experiment: CellTiter Glo cell viability assay; assay type: cell-based, human; conditions: Homo sapiens; Caki-2/HTB-47; 11 dilutions 3-0.00001 μM; read-out: IC50
Method in brief: as §1

[7] = system: Lung NCI-H1573; experiment: CellTiter Glo cell viability assay; assay type: cell-based, human; conditions: Homo sapiens; NCI-H1573/CRL-5877; 11 dilutions 3-0.00001 μM; read-out: IC50
Method in brief: as §1

[8] = system: Bladder UMUC_3; experiment: CellTiter Glo cell viability assay; assay type: cell-based, human; conditions: Homo sapiens, UMUC3; UM-UC-3/CRL-1749; 11 dilutions 3-0.00001 μM; read-out: IC50
Method in brief: as §1

[9] = system: Ewing's Sarcoma HTB-166; experiment: CellTiter Glo cell viability assay; assay type: cell-based, human; conditions: Homo sapiens; RD-ES/HTB-166; 11 dilutions 3-0.00001 μM; read-out: IC50
Method in brief: as §1

[10] = system: Pharynx DETROIT; experiment: CellTiter Glo cell viability assay; assay type: cell-based, human; conditions: Homo sapiens; Detroit 562/CCL-138; 11 dilutions 3-0.00001 μM; read-out: IC50
Method in brief: as §1

[11] = system: Liver SNU-423; experiment: CellTiter Glo cell viability assay; assay type: cell-based, human; conditions: Homo sapiens; SNU-423/CRL-2238; 11 dilutions 3-0.00001 μM; read-out: IC50
Method in brief: as §1

[12] = system: Bladder HT-1197; experiment: CellTiter Glo cell viability assay; assay type: cell-based, human; conditions: Homo sapiens, HT1197; HT-1197/CRL-1473; 11 dilutions 3-0.00001 μM; read-out: IC50
Method in brief: as §1

[13] = system: Tongue UPCI: SCC090; experiment: CellTiter Glo cell viability assay; assay type: cell-based, human; conditions: Homo sapiens; UPCI: SCC090/CRL-3239; 11 dilutions 3-0.00001 μM; read-out: IC50
Method in brief: as §1

[14] = system: Lung NCI-H1437; experiment: CellTiter Glo cell viability assay; assay type: cell-based, human; conditions: Homo sapiens; NCI-H1437/CRL-5872; 11 dilutions 3-0.00001 μM; read-out: IC50
Method in brief: as §1

[15] = system: Tongue CAL 27; experiment: CellTiter Glo cell viability assay; assay type: cell-based, human; conditions: Homo sapiens; CAL 27/CRL-2095; 11 dilutions 3-0.00001 μM; read-out: IC50
Method in brief: as §1

[16] = system: Lung NCI-H2126; experiment: CellTiter Glo cell viability assay; assay type: cell-based, human; conditions: Homo sapiens; NCI-H2126/CCL-256; 11 dilutions 3-0.00001 μM; read-out: IC50
Method in brief: as §1

[17] = system: Hypo-pharynx UPCI: SCC152; experiment: CellTiter Glo cell viability assay; assay type: cell-based, human; conditions: Homo sapiens; UPCI: SCC152/CRL-3240; 11 dilutions 3-0.00001 μM; read-out: IC50
Method in brief: as §1

[18] = system: GBM patient sample BNA99; experiment: Ex vivo GBM 3D spheroid drug response (CellTiter-Glo 3D); assay type: cell-based, human; conditions: 3D spheroids, 4 days post drug treatment
Source text: (§2) This project involves an ex vivo drug response screen for 3 ROKiT Pharma test agents and Temozolomide in 3 previously dissociated and cryopreserved GBM samples.
(§3) • 2.1 Three previously processed GBM patient samples were chosen to be used in this study.

[19] = system: GBM patient sample BNB18; experiment: as above; assay type: cell-based, human; conditions: 3D spheroids, 4 days post drug treatment
Source text: as §2, §3

[20] = system: GBM patient sample BNB04; experiment: as above; assay type: cell-based, human; conditions: Homo sapiens, 96 h, 3D spheroids; 4 days post drug treatment
Source text: as §2, §3

[21] = system: Pancreatic CAPAN-1; experiment: CellTiter Glo cell viability assay; assay type: cell-based; conditions: Homo sapiens; Capan-1/HTB-79; 11 dilutions 3-0.00001 μM

SMILES | IC50 [1] [nM] | IC50 [2] [nM] | IC50 [3] [nM] | IC50 [4] [nM] | IC50 [5] [nM] | IC50 [6] [nM] | IC50 [7] [nM] | IC50 [8] [nM] | IC50 [9] [nM] | IC50 [10] [nM] | IC50 [11] [nM] | IC50 [12] [nM] | IC50 [13] [nM] | IC50 [14] [nM] | IC50 [15] [nM] | IC50 [16] [nM] | IC50 [17] [nM] | IC50 ([18]; Homo sapiens, 96 h) [nM] | IC50 ([19]; Homo sapiens, 96 h) [nM] | IC50 [21] [nM] | also measured
CCOc1cc(O)cc(/C=C/c2ccc(O)c(O)c2)c1CC=C(C)C [Compound 20, (E)-4-(3-Ethoxy-5-hydroxy-2-(3-methylbut-2-en-1-yl)styryl)benzene-1,2-diol] | 110 | 111 | 1410 | 80.1 | 53.7 | 302 | 55.8 | 126 | 338 | 122 | 119 | 61.7 | 47.8 | 73.2 | 40.9 | 97 | 149 | 19100 | 4560 | 2240 | IC50 [20]: 23700 nM
COc1cc(/C=C/c2cc(O)cc(OC)c2CC=C(C)C)ccc1NC=O [Compound 27, (E)-N-(4-(5-hydroxy-3-methoxy-2-(3-methylbut-2-en-1-yl)styryl)-2-methoxyphenyl)formamide] | 54 | 32.5 | 302 | 28.6 | 10.9 | 1550 | 48 | 30.2 | 133 | 20.3 | 53.5 | 17.1 | 20 | 32.2 | 15 | 31 | 36.6 | 8860 | 630 | 792 | IC50 [18]: 8870 nM; IC50 [19]: 634 nM; IC50 [20]: 4310 nM
CCOc1cc(O)cc(/C=C/c2ccc(NC=O)c(OC)c2)c1CC=C(C)C [Compound 28, (E)-N-(4-(3-Ethoxy-5-hydroxy-2-(3-methylbut-2-en-1-yl)styryl)-2-methoxyphenyl)formamide] | 32.7 | 22.1 | 175 | 11.8 | 6 | 69.8 | 21.2 | 21.3 | 65.1 | 11.4 | 27.5 | 12.2 | 56.1 | 25.9 | 5 | 10.7 | 20.5 | – | – | 735 | –

— patent US20260209152A1, “Substituted Hydroxystilbene Compounds and Derivatives, Synthesis and Uses Thereof” (Kynan Duke IP, LLC, priority 2019, published 2026)
